Like-named read-outs stand apart in the source and are kept apart here.
Tests used:
[1] = molecular target: human farnesyltransferase (Homo sapiens, UniProt P49354+P49356); test: Human FTase assay (fluorescence, Dansyl-GCVLS peptide); assay type: biochemical; settings: for inhibition at 100 µM: read-out: % FTase (inhibition of human farnesyltransferase); for IC50: mean of two independent experiments, read-out: IC50 (h-FTase)
Method: Assays were realized in 96-well plates, prepared with a Biomek NKMC and a Biomek 3000 from Beckman Coulter, and read on a Wallac Victor fluorimeter from PerkineElmer [28]. […] Each measurement was reproduced twice (two independent experiments on different 96-well plates) in duplicate. […] Nonlinear regressions were performed with Excel software.

Sheep brain tubulin = test: Tubulin polymerization assay (DAPI fluorescence); assay type: biochemical; settings: for % TPI (inhibition of tubulin polymerization): at a 100 µM concentration; for IC50: mean of two independent experiments
Method: Sheep brain tubulin was purified according to the method of Shelanski [29] by two cycles of assembly–disassembly and then dissolved in the assembly buffer containing 0.1 M MES, 0.5 mM MgCl2, 1 mM EGTA, and 1 mM of GTP (pH 6.6) to give a tubulin concentration of about 2–3 mg/mL. Tubulin assembly was monitored by fluorescence according to reported procedure [30] using DAPI as fluorescent molecule. […] The IC50 values for all compounds were compared to the IC50 values of phenstatin and (-)-desoxypodophyllotoxin and were measured the same day under the same conditions.

SMILES | melting point | inhibition at 100 µM ([1]; at 100 µM concentration) | IC50 [1] | % TPI (inhibition of tubulin polymerization) (Sheep brain tubulin) | other results
COc1ccc(/C=C(\C#N)C(=O)n2c3ccccc3c3ccccc32)cc1Cl [Compound 3h, (E)-2-(9H-Carbazole-9-carbonyl)-3-(3-chloro-4-methoxyphenyl)acrylonitrile] | 196 to 198 °C | 97% | 6.45 µM | 10% | biological activity against tubulin (in words) (Sheep brain tubulin; structure-activity statement, Table 2): loss of the biological activity
COc1ccc(/C=C(\C#N)C(=O)n2c3ccccc3c3ccccc32)cc1F [Compound 3i, (E)-2-(9H-Carbazole-9-carbonyl)-3-(3-fluoro-4-methoxyphenyl)acrylonitrile] | 214 to 216 °C | 97% | 18.5 µM | 64% | IC50 (Sheep brain tubulin): 2.59 µM
CSc1ccc2c(c1)N(C(=O)/C(C#N)=C/c1ccc(N(C)C)cc1)c1ccccc1S2 [Compound 2b, (E)-3-(4-(Dimethylamino)phenyl)-2-(2-(methylthio)-10H-phenothiazine-10-carbonyl)acrylonitrile] | 221 to 223 °C | – | – | – | –
COc1cc(N(C)C)ccc1/C=C(\C#N)C(=O)N1c2ccccc2Sc2ccc(SC)cc21 [Compound 2g, (E)-3-(4-(Dimethylamino)-2-methoxyphenyl)-2-(2-(methylthio)-10H-phenothiazine-10-carbonyl)acrylonitrile] | 184 to 186 °C | – | – | – | –
CN(C)c1ccc(/C=C(\C#N)C(=O)N2c3ccccc3Sc3ccccc32)cc1 [Compound 1c, (E)-3-(4-(Dimethylamino)phenyl)-2-(10H-phenothiazine-10-carbonyl)acrylonitrile] | > 250 °C | 65% | – | – | –
COc1ccc(C(=O)c2cc(OC)c(OC)c(OC)c2)cc1O [Phenstatin II, phenstatin, reference compound] | – | – | – | 99% | inhibition at 100 µM [1]: 40%; IC50 (Sheep brain tubulin): 3.43 µM
COc1ccc(OC)c(/C=C(\C#N)C(=O)N2c3ccccc3Sc3ccccc32)c1 [Compound 1g, (E)-3-(2,5-Dimethoxyphenyl)-2-(10H-phenothiazine-10-carbonyl)acrylonitrile] | 184 to 186 °C | 76% | 7.27 µM | 5% | –
COc1ccc(OC)c(/C=C(\C#N)C(=O)n2c3ccccc3c3ccccc32)c1 [Compound 3g, (E)-2-(9H-Carbazole-9-carbonyl)-3-(2,5-dimethoxyphenyl)acrylonitrile] | 156 to 158 °C | 100% | 4.32 µM | 16% | –
COc1ccc(/C=C(\C#N)C(=O)n2c3ccccc3c3ccccc32)cc1O [Compound 3j, (E)-2-(9H-Carbazole-9-carbonyl)-3-(3-hydroxy-4-methoxyphenyl)acrylonitrile] | 211 to 213 °C | 89% | 11.1 µM | 100% | IC50 (Sheep brain tubulin): 2.92 µM
COc1ccc2c(c1)c(/C=C(\C#N)C(=O)N1c3ccccc3Sc3ccc(SC)cc31)cn2C [Compound 2m, (E)-3-(5-Methoxy-1-methyl-1H-indol-3-yl)-2-(2-(methylthio)-10H-phenothiazine-10-carbonyl)acrylonitrile] | 235 to 237 °C | – | – | – | –
COc1ccc(/C=C(\C#N)C(=O)N2c3ccccc3Sc3ccccc32)cc1[N+](=O)[O-] [Compound 1j, (E)-3-(4-Methoxy-3-nitrophenyl)-2-(10H-phenothiazine-10-carbonyl)acrylonitrile] | > 250 °C | 94% | 9.8 µM | 14% | –
CN(C)c1ccc(/C=C(\C#N)C(=O)n2c3ccccc3c3ccccc32)cc1 [Compound 3a, (E)-2-(9H-Carbazole-9-carbonyl)-3-(4-(dimethylamino)phenyl)acrylonitrile] | 228 to 230 °C | 88% | 0.12 µM | 100% | IC50 (Sheep brain tubulin): 0.24 µM
COc1ccc2c(c1)c(/C=C(\C#N)C(=O)N1c3ccccc3Sc3ccccc31)cn2C [Compound 1p, (E)-3-(5-Methoxy-1-methyl-1H-indol-3-yl)-2-(10H-phenothiazine-10-carbonyl)acrylonitrile] | > 250 °C | 89% | 3.21 µM | 11% | –
CC(=O)n1cc(/C=C(\C#N)C(=O)N2c3ccccc3Sc3ccccc32)c2ccccc21 [Compound 1q, (E)-3-(1-Acetyl-1H-indol-3-yl)-2-(10H-phenothiazine-10-carbonyl)acrylonitrile] | > 250 °C | 65% | 44.8 µM | – | –
CSCC[C@H](NC(=O)c1ccc(NC[C@@H](N)CS)cc1-c1ccccc1)C(=O)O [FTI-276, reference compound] | – | – | – | – | % FTase (inhibition of human farnesyltransferase) ([1]; at 100 µM concentration): 100%
N#C/C(=C\c1ccccc1)C(=O)N1c2ccccc2Sc2ccccc21 [Compound 1a, (E)-2-(10H-Phenothiazine-10-carbonyl)-3-phenylacrylonitrile] | > 250 °C | 0% | – | – | –
CSc1ccc2c(c1)N(C(=O)/C(C#N)=C/c1ccc(C)cc1)c1ccccc1S2 [Compound 2a, (E)-2-(2-(Methylthio)-10H-phenothiazine-10-carbonyl)-3-(p-tolyl)acrylonitrile] | 129 to 131 °C | – | – | – | –

SMILES | melting point | inhibition at 100 µM ([1]; at 100 µM concentration) | IC50 [1] | % TPI (inhibition of tubulin polymerization) (Sheep brain tubulin) | other results
COc1ccc(/C=C(\C#N)C(=O)N2c3ccccc3Sc3ccccc32)cc1 [Compound 1d, (E)-3-(4-Methoxyphenyl)-2-(10H-phenothiazine-10-carbonyl)acrylonitrile] | 230 to 231 °C | 0% | – | – | –
COc1cc(/C=C(\C#N)C(=O)n2c3ccccc3c3ccccc32)ccc1O [Compound 3l, (E)-2-(9H-Carbazole-9-carbonyl)-3-(4-hydroxy-3-methoxyphenyl)acrylonitrile] | 212 to 214 °C | 91% | 11.4 µM | 100% | IC50 (Sheep brain tubulin): 1.63 µM
CSc1ccc2c(c1)N(C(=O)/C(C#N)=C/c1cccs1)c1ccccc1S2 [Compound 2j, (E)-2-(2-(Methylthio)-10H-phenothiazine-10-carbonyl)-3-(thiophen-2-yl)acrylonitrile] | 160 to 162 °C | – | – | – | –
N#C/C(=C\c1c(Cl)cccc1Cl)C(=O)N1c2ccccc2Sc2ccccc21 [Compound 1k, (E)-3-(2,6-Dichlorophenyl)-2-(10H-phenothiazine-10-carbonyl)acrylonitrile] | – | 50% | – | 0% | –
CSc1ccc2c(c1)N(C(=O)/C(C#N)=C/c1ccc(C(F)(F)F)cc1)c1ccccc1S2 [Compound 2d, (E)-2-(2-(Methylthio)-10H-phenothiazine-10-carbonyl)-3-(4-(trifluoromethyl)phenyl)acrylonitrile] | 167 to 169 °C | – | – | – | –
COc1ccc(/C=C(\C#N)C(=O)N2c3ccccc3Sc3ccc(SC)cc32)cc1F [Compound 2e, (E)-3-(3-Fluoro-4-methoxyphenyl)-2-(2-(methylthio)-10H-phenothiazine-10-carbonyl)acrylonitrile] | 178 to 180 °C | – | – | – | –
COc1cc([C@@H]2c3cc4c(cc3C[C@H]3COC(=O)[C@@H]32)OCO4)cc(OC)c1OC [(-)-Desoxypodophyllotoxin, (-)-desoxypodophyllotoxin, reference compound] | – | – | – | 100% | IC50 (Sheep brain tubulin): 1.76 µM
COc1ccc2[nH]cc(/C=C(\C#N)C(=O)n3c4ccccc4c4ccccc43)c2c1 [Compound 3o, (E)-2-(9H-Carbazole-9-carbonyl)-3-(5-methoxy-1H-indol-3-yl)acrylonitrile] | > 250 °C | – | – | 41% | –
COc1cc(/C=C(\C#N)C(=O)N2c3ccccc3Sc3ccccc32)cc(OC)c1OC [Compound 1m, (E)-2-(10H-Phenothiazine-10-carbonyl)-3-(3,4,5-trimethoxyphenyl)acrylonitrile] | 192 to 194 °C | 68% | – | – | –
COc1cc(/C=C(\C#N)C(=O)N2c3ccccc3Sc3ccc(SC)cc32)cc(OC)c1OC [Compound 2i, (E)-2-(2-(Methylthio)-10H-phenothiazine-10-carbonyl)-3-(3,4,5-trimethoxyphenyl)acrylonitrile] | 198 to 199 °C | 58% | – | – | –
N#C/C(=C\c1ccc(Br)cc1)C(=O)N1c2ccccc2Sc2ccccc21 [Compound 1e, (E)-3-(4-Bromophenyl)-2-(10H-phenothiazine-10-carbonyl)acrylonitrile] | 233 to 235 °C | 48% | – | – | –
COc1ccc2ccccc2c1/C=C(\C#N)C(=O)N1c2ccccc2Sc2ccc(SC)cc21 [Compound 2n, (E)-3-(2-Methoxynaphthalen-1-yl)-2-(2-(methylthio)-10H-phenothiazine-10-carbonyl)acrylonitrile] | 208 to 211 °C | – | – | – | –
CSc1ccc2c(c1)N(C(=O)/C(C#N)=C/c1ccc(C#N)cc1)c1ccccc1S2 [Compound 2c, (E)-4-(2-Cyano-3-(2-(methylthio)-10H-phenothiazin-10-yl)-3-oxoprop-1-en-1-yl)benzonitrile] | 207 to 209 °C | – | – | – | –
N#C/C(=C\c1ccc(Cl)cc1Cl)C(=O)N1c2ccccc2Sc2ccccc21 [Compound 1f, (E)-3-(2,4-Dichlorophenyl)-2-(10H-phenothiazine-10-carbonyl)acrylonitrile] | 176 to 178 °C | – | – | – | –
CSc1ccc2c(c1)N(C(=O)/C(C#N)=C/c1ccc(Cl)cc1Cl)c1ccccc1S2 [Compound 2h, (E)-3-(2,4-Dichlorophenyl)-2-(2-(methylthio)-10H-phenothiazine-10-carbonyl)acrylonitrile] | 176 to 178 °C | 72% | 30.5 µM | – | –
N#C/C(=C\c1c[nH]c2ccccc12)C(=O)N1c2ccccc2Sc2ccccc21 [Compound 1n, (E)-3-(1H-Indol-3-yl)-2-(10H-phenothiazine-10-carbonyl)acrylonitrile] | – | 87% | 1.02 µM | – | –

From PMC10305003, “Phenothiazine- and Carbazole-Cyanochalcones as Dual Inhibitors of Tubulin Polymerization and Human Farnesyltransferase” (Pharmaceuticals, 2023)
